Experimental findings from ChEMBL document CHEMBL3611975, “New carbocyclic N(6)-substituted adenine and pyrimidine nucleoside analogues with a bicyclo[2.2.1]heptane fragment as sugar moiety; synthesis, antiviral, anticancer activity and X-ray crystallography” (Bioorg Med Chem, 2015) are described below.

Series [1] is described as follows: Selectivity index, ratio of CTD50 for African green monkey Vero cells to EC50 for Human coxsackievirus B4 Powers. In kind it is toxicity, cell-based.
A further series deals with Coxsackievirus B4. Kind of series: Antiviral activity against Human coxsackievirus B4 Powers infected in African green monkey Vero cells assessed as decrease in virus titer after 72 hrs by MTT assay. In kind it is functional, organism-based. The following applies: Enterovirus B.
The nature of series [2]: Selectivity index, ratio of CTD50 for MDCK cells to EC50 for Influenza A virus (A/Puerto Rico/8/1934(H1N1)). The class given is toxicity, cell-based. The following applies: dog.
The test system of another series is Influenza A virus. Description: Antiviral activity against Influenza A virus (A/Puerto Rico/8/1934(H1N1)) infected in MDCK cells assessed as decrease in virus titer after 48 hrs by MTT assay. In kind it is functional, organism-based.
Series [3] can be described thus: Cytotoxicity against African green monkey Vero cells assessed as cell viability after 72 hrs by MTT assay. The class given is cell-based. The settings on record: chlorocebus sabaeus, read-out: CTD50. (Tetrazolium assays rely on reduction of a dye to a coloured formazan, in cell work by metabolically active cells.)
Series [4] in a line: Cytotoxicity against MDCK cells assessed as cell viability after 48 hrs by MTT assay. The settings on record: dog, read-out: CTD50. The class given is cell-based, Canis lupus familiaris.

For orientation: EC50 means the concentration that produces a half-maximal response. For the molecule `Nc1ncnc2c1ncn2[C@H]1C[C@H]2[C@H](CO)[C@@H]1C[C@@H]2Cl`, the selectivity ratio was 3 in series [1] and over 150 in series [2]. For the same molecule, the EC50 with Coxsackievirus B4 was over 112 µM; in the series with Influenza A virus, 8 µM. Besides, the CC50 at 72 h in series [3] was 332 µM. In addition, the CC50 at 48 h in series [4] is over 1120 µM.
Regarding `CN(C)c1ncnc2c1ncn2[C@H]1C[C@H]2[C@H](CO)[C@@H]1C[C@@H]2Cl`, the selectivity ratio in series [1] turned out to be 9; in series [2] it was 8. Further, the EC50 in the series on Coxsackievirus B4 amounted to 28 µM; in the series with Influenza A virus, 112 µM. Also, the CC50 at 72 h in series [3] turned out to be 235 µM. Also, the CC50 at 48 h in series [4] is 929 µM.
Consider `OC[C@H]1[C@@H]2C[C@H](n3cnc4c(NC5CC5)ncnc43)[C@H]1C[C@@H]2Cl`, for which the values for the selectivity ratio in series [1] and in series [2] were 15 and 151, respectively. Further, the 50% effective concentration (EC50) came to 17 µM in the series on Coxsackievirus B4 and 8 µM with Influenza A virus. In series [3], the CC50 at 72 h came to 247 µM. In series [4], the CC50 at 48 h turned out to be 1130 µM.
Consider `OC[C@H]1[C@@H]2C[C@H](n3cnc4c(NC5CCCC5)ncnc43)[C@H]1C[C@@H]2Cl`, for which the selectivity ratio in series [1] was found to be 1; in series [2], 36. Further, the EC50 in the series on Coxsackievirus B4 was over 30 µM; with Influenza A virus, 15 µM. In addition, the CC50 at 72 h in series [3] came to 27 µM. The CC50 at 48 h in series [4] was 529 µM.
Take `CCN(CC)CCCNc1ncnc2c1ncn2[C@H]1C[C@H]2[C@H](CO)[C@@H]1C[C@@H]2Cl`: the selectivity ratio in series [1] was 2; in series [2], under 3. For the same molecule, the EC50 in the series with Coxsackievirus B4 is over 81 µM; in the series with Influenza A virus, over 245 µM. The CC50 at 72 h in series [3] was 137 µM. For the same molecule, the CC50 at 48 h in series [4] worked out at 664 µM.
`CN1CCN(c2ncnc3c2ncn3[C@H]2C[C@H]3[C@H](CO)[C@@H]2C[C@@H]3Cl)CC1`: the selectivity ratio in series [1] came out at 3; in series [2], 39. Further, the EC50 was over 87 µM in the series on Coxsackievirus B4 and 25 µM with Influenza A virus. For the same molecule, the CC50 at 72 h in series [3] is 227 µM. Further, the CC50 at 48 h in series [4] is 1000 µM.
For `OC[C@H]1[C@@H]2C[C@H](n3cnc4c(N5CCOCC5)ncnc43)[C@H]1C[C@@H]2Cl`, the selectivity ratio in series [1] was found to be 1; in series [2] it was 54. Also, the values for the half-maximal effective concentration (EC50) in the series with Coxsackievirus B4 and in the series on Influenza A virus were over 90 µM and 19 µM, respectively. The CC50 at 72 h in series [3] came out at 97 µM. Also, the CC50 at 48 h in series [4] is 997 µM.
With `OC[C@H]1[C@@H]2C[C@H](n3cnc4c(NC5CCCCC5)ncnc43)[C@H]1C[C@@H]2Cl`, the selectivity ratio worked out at 1 in series [1] and 6 in series [2]. The concentration for a half-maximal effect (EC50) in the series with Coxsackievirus B4 was over 11 µM; in the series with Influenza A virus, 91 µM. The CC50 at 72 h in series [3] came out at 14 µM. Besides, the CC50 at 48 h in series [4] amounted to 528 µM.
Take `CCN(CC)CCNc1ncnc2c1ncn2[C@H]1C[C@H]2[C@H](CO)[C@@H]1C[C@@H]2Cl`: the selectivity ratio in series [1] stood at 2; in series [2], 36. Moreover, the EC50 in the series with Coxsackievirus B4 is over 84 µM; with Influenza A virus it was 20 µM. The CC50 at 72 h in series [3] turned out to be 175 µM. Moreover, the CC50 at 48 h in series [4] is 731 µM.
On to `OC[C@H]1[C@@H]2C[C@H](n3cnc4c(NCCc5ccc(O)cc5)ncnc43)[C@H]1C[C@@H]2Cl`, for which the selectivity ratio in series [1] is 6; in series [2], over 16. The 50% effective concentration (EC50) in the series with Coxsackievirus B4 was determined as 18 µM; with Influenza A virus, 48 µM. In series [3], the CC50 at 72 h turned out to be 108 µM. In addition, the CC50 at 48 h in series [4] was over 795 µM.
For `OC[C@@H](Cc1ccccc1)Nc1ncnc2c1ncn2[C@H]1C[C@H]2[C@H](CO)[C@@H]1C[C@@H]2Cl`, the selectivity ratio in series [1] came out at 141; in series [2], 3. Further, the results for the EC50 in the series on Coxsackievirus B4 and with Influenza A virus were 1 µM and 131 µM, respectively. Also, the CC50 at 72 h in series [3] was found to be 197 µM. Also, the CC50 at 48 h in series [4] turned out to be 410 µM.
As for `OC[C@H]1[C@@H]2C[C@H](n3cnc4c(NCc5cccnc5)ncnc43)[C@H]1C[C@@H]2Cl`, the selectivity ratio in series [1] amounted to 2; in series [2] it was 5. Besides, the EC50 was over 86 µM in the series with Coxsackievirus B4 and 122 µM in the series on Influenza A virus. Also, the CC50 at 72 h in series [3] amounted to 204 µM. In addition, in series [4], the CC50 at 48 h is 554 µM.
As to `OC[C@H]1[C@@H]2C[C@H](n3cnc4c(NCc5ccncc5)ncnc43)[C@H]1C[C@@H]2Cl`, the results for the selectivity ratio in series [1] and in series [2] were 2 and 3, respectively. In addition, the EC50 in the series on Coxsackievirus B4 is over 84 µM; in the series on Influenza A virus, 250 µM. Besides, the CC50 at 72 h in series [3] was determined as 166 µM. The CC50 at 48 h in series [4] is 712 µM.
As for `CN1CCN(Nc2ncnc3c2ncn3[C@H]2C[C@H]3[C@H](CO)[C@@H]2C[C@@H]3Cl)CC1`, the results for the selectivity ratio in series [1] and in series [2] were 1 and 73, respectively. Besides, the results for the 50% effective concentration (EC50) in the series on Coxsackievirus B4 and in the series with Influenza A virus were over 255 µM and 12 µM, respectively. Further, the CC50 at 72 h in series [3] is 255 µM. For the same molecule, the CC50 at 48 h in series [4] stood at 840 µM.
With `CCN(CC)c1ncnc2c1ncn2[C@H]1C[C@H]2[C@H](CO)[C@@H]1C[C@@H]2Cl`, the results for the selectivity ratio in series [1] and in series [2] were 2 and 18, respectively. The EC50 is over 94 µM in the series on Coxsackievirus B4 and 22 µM in the series on Influenza A virus. Also, in series [3], the CC50 at 72 h came out at 182 µM. For the same molecule, the CC50 at 48 h in series [4] is 385 µM.
Take `OC[C@@H]1[C@@H]2C[C@H](Cl)[C@H]1C[C@@H]2Nc1ncnc2c1ncn2[C@H]1C[C@H]2[C@H](CO)[C@@H]1C[C@@H]2Cl`: the selectivity ratio in series [1] is 3; in series [2], over 73. Further, the results for the EC50 in the series with Coxsackievirus B4 and in the series on Influenza A virus were 61 µM and 10 µM, respectively. Also, in series [3], the CC50 at 72 h turned out to be 213 µM. In addition, the CC50 at 48 h in series [4] was over 704 µM.
Turning to `Cc1cn([C@H]2C[C@H]3[C@H](CO)[C@@H]2C[C@@H]3Cl)c(=O)[nH]c1=O`, the selectivity ratio was 1 in series [1] and over 3 in series [2]. Besides, the EC50 in the series on Coxsackievirus B4 is over 352 µM; with Influenza A virus, 352 µM. In series [3], the CC50 at 72 h was 57 µM. Besides, the CC50 at 48 h in series [4] was over 1160 µM.
Turning to `O=c1ccn([C@H]2C[C@H]3[C@H](CO)[C@@H]2C[C@@H]3Cl)c(=O)[nH]1`, the figures for the selectivity ratio in series [1] and in series [2] were 1 and over 19, respectively. Also, the EC50 is over 367 µM in the series on Coxsackievirus B4 and 64 µM in the series with Influenza A virus. In addition, the CC50 at 72 h in series [3] was 172 µM. The CC50 at 48 h in series [4] is over 1210 µM.
